Measurements as given in patent US20120095028A1, “3-OXA-7-AZABICYCLO[3.3.1]NONANES” (Pfizer Inc., priority 2009, published 2012).
Where “and” joins values, the source holds several entries; their conditions need not be identical. Equal entries are not always repeated.

Target: T1, human GPR119 (Homo sapiens, UniProt Q8TDV5)
T1 construct: host or cells: HEK293-CRE-β-lactamase cells expressing hGPR119
T1 sequence (Q8TDV5 1-335): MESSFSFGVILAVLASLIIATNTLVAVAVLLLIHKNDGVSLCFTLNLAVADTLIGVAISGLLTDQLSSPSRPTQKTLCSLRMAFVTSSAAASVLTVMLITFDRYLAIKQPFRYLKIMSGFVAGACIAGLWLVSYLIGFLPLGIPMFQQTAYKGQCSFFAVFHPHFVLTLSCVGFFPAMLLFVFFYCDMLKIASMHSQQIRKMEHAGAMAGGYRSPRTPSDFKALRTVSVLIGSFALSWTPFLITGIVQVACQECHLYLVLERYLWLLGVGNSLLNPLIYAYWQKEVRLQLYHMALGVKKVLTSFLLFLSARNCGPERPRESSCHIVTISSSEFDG
Assay: GPR119 agonist cell-based hGPR119 HEK293-CRE β-lactamase reporter assay
Details: one value per run; for EC50: hGPR119-HEK-CRE-β-lactamase cells, 16 hours incubation; for Emax: read-out: Intrinsic Activity*
Protocol: The assay for GPR119 agonists utilizes a cell-based (hGPR119 HEK293-CRE β-lactamase) reporter construct where agonist activation of human GPR119 is coupled to β-lactamase production via a cyclic AMP response element (CRE). GPR119 activity is then measured utilizing a FRET-enabled R-lactamase substrate, CCF4-AM (Live Blazer FRET-B/G Loading kit, Invitrogen cat #K1027). Specifically, hGPR119-HEK-CRE-β-lactamase cells (Invitrogen 2.5×10^7/mL) were removed from liquid nitrogen storage, and diluted in plating medium (Dulbecco's modified Eagle medium high glucose (DMEM; Gibco Cat #11995-065), 10% heat inactivated fetal bovine serum (HIFBS; Sigma Cat #F4135), 1× MEM Nonessential amino acids (Gibco Cat #15630-080), 25 mM HEPES pH 7.0 (Gibco Cat #15630-080), 200 nM potassium clavulanate (Sigma Cat #P3494). The cell concentration was adjusted using cell plating medium and 50 μL of this cell suspension (12.5×10^4 viablecells) was added into each well of a black, clear bottom, poly-d-lysine coated 384-well plate (Greiner Bio-One cat #781946) and incubated at 37° C. in a humidified environment containing 5% carbon dioxide. After 4 hours the plating medium was removed and replaced with 40 μL of assay medium (Assay medium is plating medium without potassium clavulanate and HIFBS). Varying concentrations of each compound to be tested was then added in a volume of 10 uL (final DMSO≦0.5%) and the cells were incubated for 16 hours at 37° C. in a humidified environment containing 5% carbon dioxide. Plates were removed from the incubator and allowed to equilibrate to room temperature for approximately 15 minutes. 10 uL of 6× CCF4/AM working dye solution (prepared according to instructions in the Live Blazer FRET-B/G Loading kit, Invitrogen cat #K1027) was added per well and incubated at room temperature for 2 hours in the dark. Fluorescence was measured on an EnVision fluorimetric plate reader, excitation 405 nm, emission 460 nm/535 nm. EC50 determinations were made from agonist-response curves analyzed with a curve fitting program using a 4-parameter logistic dose-response equation.

[1] = percent of maximal activity relative to standard GPR119 agonist at a final concentration of 10 μM

Row | EC50 | Intrinsic Activity* [1] | Emax [1] [%] | SMILES
1 | 10.5 nM and 12.8 nM and 23.3 nM | 88% and 87% | 90 | CC(C)OC(=O)N1C[C@H]2COC[C@@H](C1)[C@@H]2Oc1ncnc2c1CCN2c1ccc(S(C)(=O)=O)cc1F [Example 1, Isopropyl 9-syn-({7-[2-fluoro-4-(methylsulfonyl)phenyl]-6,7-dihydro-5H-pyrrolo[2,3-d]pyrimidin-4-yl}oxy)-3-oxa-7-azabicyclo[3.3.1]nonane-7-carboxylate]
2 | 23.8 nM | – | 93 | CC(C)OC(=O)N1C[C@H]2COC[C@@H](C1)[C@H]2Oc1ncnc2c1CCN2c1ccc(S(C)(=O)=O)cc1F [Example 2, Isopropyl 9-anti-({7-[2-fluoro-4-(methylsulfonyl)phenyl]-6,7-dihydro-5H-pyrrolo[2,3-d]pyrimidin-4-yl}oxy)-3-oxa-7-azabicyclo[3.3.1]nonane-7-carboxylate]
